# Measurements published in patent publication US20100196462A1, “Method for Manufacturing a Pharmaceutical Form of Oseltamivir Phosphate” (priority 2006, published 2010).
# Assay: Density of the oseltamivir phosphate active ingredient before densification (pharmacotechnical tests)
# Assay type: physicochemical
# Details: active ingredient as received, without densification
smiles,measurement,value
CCOC(=O)C1=C[C@@H](OC(CC)CC)[C@H](NC(C)=O)[C@@H](N)C1 [oseltamivir phosphate],density,approximately 0.1 g/cm^3
